# Source: paper PMC8464850, “Sulfonium Ligands of the α7 nAChR” (Molecules, 2021)
# Where two headings read alike, the source gives them in different places.
# Experiments:
# α7 nAChR [1] = target: T1, α7 nAChR (Homo sapiens, UniProt P36544); test: α7 responses on co-application with the type II PAM TQS (silent agonism); format: cell-based; details: for α7 functional classification (silent agonist / inactive): inactive alone, active with a PAM = silent agonist; for response when co-applied with TQS: 100 µM compound with 30 µM racemic TQS, net charge
# T1 construct: expressed in transfected cells; host or cells: Xenopus laevis oocytes (injected RNA)
# Description: (§1) Compounds were co-applied at a concentration of 100 µM with 30 µM racemic TQS (Figure 3A). All compounds except S4, S5, and S8 gave large responses when co-applied with TQS, consistent with silent agonism of α7 (see Table S1 for ANOVA). Active compounds were also evaluated across a range of concentrations with the alternative PAM, PNU-120596 (Figure 3B). The curve-fit values for Imax (Table 1) should be taken only as approximation of the relative efficacies of the compounds, due to the large variability frequently observed in PNU-120596-potentiated responses, as evidenced by the large SEMs of the responses obtained with high concentrations.
# (§2) Figure 3 Responses of α7 nAChR to sulfonium compounds coapplied with PAMs. (A) Potentiation of α7 responses with 30 µM racemic TQS. Shown are the average net-charge responses of seven or eight oocytes ± SEM. (B) Concentration-response studies of peak currents generated by compounds that gave positive responses with TQS, coapplied with 10 µM PNU-120596. Each point represents the average (±SEM) of at least four oocytes.
# The human nAChR clones were obtained from Jon Lindstrom (University of Pennsylvania, Philadelphia, PA, USA). Mouse muscle subunit clones were obtained from Jim Boulter (Salk Institute, La Jolla, CA, USA) and Paul Gardner (Dartmouth, Hanover, NH, USA). The human resistance-to-cholinesterase 3 (RIC3) clone was obtained from Millet Treinin (Hebrew University, Jerusalem, Israel) and co-injected with α7 to improve the level and speed of α7 receptor expression without affecting the pharmacological properties of the receptors. Subsequent to linearization and purification of the plasmid DNAs, RNAs were prepared using the mMessage mMachine in vitro RNA transcription kit (Ambion, Austin, TX, USA).
# (§3) Experiments were conducted using OpusXpress 6000A (Molecular Devices, Union City, CA, USA). Both the voltage and current electrodes were filled with 3 M KCl. Oocytes were voltage-clamped at −60 mV at room temperature (24 °C). The oocytes were bath-perfused with Ringer’s solution (115 mM NaCl, 2.5 mM KCl, 1.8 mM CaCl2, 10 mM HEPES, and 1 μM atropine, pH 7.2) at 2 mL/min for α7 receptors, or 4 mL/min for heteromeric nAChR. To evaluate the effects of experimental compounds, responses were compared to control ACh-evoked responses, defined as the average of two initial applications of ACh made before test applications. ACh control concentrations were 60 µM for α7 receptors; 100 µM for α4(3)β2(2) and α3β4 receptors; 30 µM for α4β2α6β2β3 and muscle-type (αβ1εδ) receptors; and 10 µM for α4(3)β2(2) and α4(2)β2(2)α5 receptors.
# (§4) Solutions were applied from 96-well plates via disposable tips. Drug applications were 12 s in duration, followed by 181 s washout periods for α7 receptors, or 6 s in duration followed by 301 s washout periods for heteromeric nAChR. The responses were calculated as both peak current amplitudes and net charge, as previously described. Data were collected at 50 Hz, filtered at 20 Hz for α7 receptors or filtered at 5 Hz for heteromeric nAChR, and analyzed by Clampfit (Molecular Devices, San Jose, CA, USA) and Excel (Microsoft, Redmond, WA, USA). Data were expressed as means ± SEM from at least four oocytes for each experiment and plotted with Kaleidagraph 4.5.2 (Abelbeck Software, Reading, PA, USA). Multi-cell averages were calculated for comparisons of complex responses. Averages of the normalized data were calculated for each of the 10,322 points in each of the 206.44 s traces (acquired at 50 Hz), as well as the standard errors for those averages.
# α7 nAChR [2] = target: T1, α7 nAChR; test: α7 concentration-response on co-application with 10 µM PNU-120596; format: cell-based; details: peak currents, co-applied with 10 µM PNU-120596, Hill fit; for IMax (PNU Activation): approximation only
# Description: as §1, §2, §3, §4
# α7 nAChR [3] = target: T1, α7 nAChR; test: Inhibition of α7 ACh-evoked responses; format: cell-based; details: for effect on 60 µM ACh response at 1 mM: compound 1 mM co-applied with 60 µM ACh; for inhibition of responses to 60 µM ACh: compound co-applied at 100 µM; for inhibition at 100 µM: read-out: inhibition of responses to 60 µM ACh
# Description: Figure 4 Effects sulfonium compounds on α7 ACh-evoked net-charge responses. (A) Effects of the sulfonium compounds at 100 µM co-applied with 60 µM relative to responses to 60 µM ACh applied alone. Data are the averages (±SEM) from seven or eight cells under each condition. (B) Effects of select sulfonium compounds at 1 mM co-applied with 60 µM relative to responses to 60 µM ACh applied alone. Data are the averages (±SEM) from seven or eight cells under each condition. Statistical significance was determined by pairwise t-test with p values corrected for multiple comparisons; * p < 0.05, ** p < 0.001.
# The sulfonium compounds that were active with TQS but produced little inhibition of ACh response at a concentration of 100 µM were tested as inhibitors of ACh response at a concentration of 1 mM (Figure 4B).
# We tested S8 across a range of concentrations for its ability to inhibit 60 µM ACh responses (Figure 5A). Note that we use 60 µM as an ACh control because this concentration gives nearly maximal (93%) net-charge responses, with the time course of the responses roughly following the speed of solution exchange. […] We tested whether inhibition of α7 responses by S8 was surmountable by increasing ACh concentration, consistent with a competitive mechanism of inhibition. However, since α7 responses to concentrations of ACh greater than 60 µM occur more rapidly than solution exchange in the chamber, we first pre-applied 5 µM S8 prior to the co-application of 5 µM S8 with either 60 µM or 1 mM ACh (Figure 5B). The 60 µM net-charge responses were reduced to 28 ± 2% of controls (n = 8) and 60 µM peak currents to 21 ± 3 % controls. The 1 mM net-charge responses were reduced to 56 ± 6 % of those obtained without S8 co-application, although the S8 co-application increased the peak-current amplitudes compared to 60 µM controls from 1.78 ± 0.15 to 3.72 ± 0.81 (n = 8).
# Figure 5 Inhibition of α7 ACh-evoked responses by S8. (A) Concentration-response studies of α7 net-charge responses to 60 µM ACh co-applied with increasing concentrations of S8. To confirm the stability of the ACh responses, applications of ACh plus S8 were alternated with applications of ACh alone. Data are the averages of eight cells (±SEM). See text for curve-fit values. (B) Effects of 5 µM S8 on responses to either 60 µM or 1 mM ACh. The traces shown across the top are the averaged raw data from seven cells, each normalized to the peak current of the first ACh control response shown. In order to assure that the S8 was present at 5 µM throughout the ACh-evoked responses, a 30 s pre-application was made of 5 µM S8 alone. The lower traces show averaged responses to 60 µM or 1 mM ACh alone or with the 5 µM S8 pre- and co-application. The details of the data are described in Methods.
# as §3
# Solutions were applied from 96-well plates via disposable tips. Drug applications were 12 s in duration, followed by 181 s washout periods for α7 receptors, or 6 s in duration followed by 301 s washout periods for heteromeric nAChR. […]
# α3β4 nAChR = target: T2, α3β4 nAChR (Homo sapiens, UniProt P30926+P32297); test: Inhibition of α3β4 100 µM ACh-evoked peak currents; format: cell-based; details: co-application with 100 µM ACh, peak currents
# T2 construct: expressed in transfected cells; host or cells: Xenopus laevis oocytes (injected RNA)
# Description: (§5) Although none of the other sulfonium compounds activated neuronal heteromeric receptors, several of them produced inhibition of ACh-evoked responses. Shown in Figure 7A are concentration-response studies for the compounds that were active antagonists of α3β4 nAChR (Table 3). Some compounds were also tested as antagonists of α4β2 subtypes formed with concatamers (Figure 7B).
# Figure 7 Inhibition of heteromeric nAChR by sulfonium compounds. (A) Inhibition of α3β4 100 µM ACh-evoked peak currents by the co-application of the sulfonium compounds. Data are the averaged of six to eight oocytes (±SEM). To confirm the stability of the ACh responses, applications of ACh plus the sulfonium compounds were alternated with applications of ACh alone. (B) Inhibition of ACh control peak-current responses of α4-containing nAChR formed with concatamers by 100 µM of the sulfonium compounds indicated. Data are the average of six to eight oocytes (±SEM).
# as §3, §4
# [4] = test system: α4β2 subtypes formed with concatamers; test: Inhibition of ACh control peak-current responses of α4-containing nAChR formed with concatamers; format: cell-based, human; details: 100 µM compound, Figure 7B
# Description: as §5
# Figure 7 Inhibition of heteromeric nAChR by sulfonium compounds. (A) Inhibition of α3β4 100 µM ACh-evoked peak currents by the co-application of the sulfonium compounds. Data are the averaged of six to eight oocytes (±SEM). […]
# as §4, with “Drug applications were 12 s in duration, followed by 181 s washout periods for α7 receptors, or 6 s in duration followed by 301 s washout periods for heteromeric nAChR.” left out
# pKa by titration = format: physicochemical
# Text: One of the questions that emerges from the data is why aromatic sulfoniums as structurally similar as S5, S9, and S10 provide different responses when coapplied with TQS. Indeed, compounds S5 and S9 virtually overlap in their best docked poses (Supplementary Figure S1), but the α7 response of S9 and TQS was dramatically greater than that of S5 and TQS (p < 0.001, Table S1). The formation of cation–pi interactions is a key feature of the binding of nicotinic orthosteric ligands, and the electronic distribution of the cation can be compared qualitatively in a series of compounds using molecular electrostatic potentials (MEPs). Analysis of the MEPs shown in Figure 9 reveal that the substituents on the benzene ring can modulate the intensity of the positive charge on the sulfonium center. Compound S5, for instance, has two hydroxyl groups which are strongly electron donating, and in comparison to compound S9, which has only one hydroxyl group, the intensity of the positive charge is […]. Another factor may be that a lone pair on the ortho hydroxyl substituent is donating electron density through space to the neighboring sulfonium, redistributing its positive charge. Compound S10 also has an ortho hydroxyl group, but unlike compound S5, compound S10 also has a nitro group, which is a strong electron-withdrawing group that may offset the electron-donating impact of the ortho hydroxyl group. Inspection of the MEP surface shown in Figure 9 does indicate that, relative to S5, the S10 sulfonium bears greater positive electrostatic potential. Given that compounds such as para-nitrophenol are acidic, with a pKa of ~7 for the phenolic hydroxyl, we also considered whether the deprotonated forms of S5, S9, and S10 might be accessible at the pH of our experiments.
# Thus, all three compounds have varying proportions of the phenolic OH in the phenoxide form at the pH of Ringers solution used in the experiments. […] Future work on analogs of these compounds may be focused on substituents that are non-ionizable, and thus preserve a positive molecular charge derived from the sulfonium center.
# α7 = details: alone and co-applied with an α7 PAM; cited from earlier work
# [5] = 5 µM S8 pre-applied and co-applied
# T2 sequence (P32297 32-505): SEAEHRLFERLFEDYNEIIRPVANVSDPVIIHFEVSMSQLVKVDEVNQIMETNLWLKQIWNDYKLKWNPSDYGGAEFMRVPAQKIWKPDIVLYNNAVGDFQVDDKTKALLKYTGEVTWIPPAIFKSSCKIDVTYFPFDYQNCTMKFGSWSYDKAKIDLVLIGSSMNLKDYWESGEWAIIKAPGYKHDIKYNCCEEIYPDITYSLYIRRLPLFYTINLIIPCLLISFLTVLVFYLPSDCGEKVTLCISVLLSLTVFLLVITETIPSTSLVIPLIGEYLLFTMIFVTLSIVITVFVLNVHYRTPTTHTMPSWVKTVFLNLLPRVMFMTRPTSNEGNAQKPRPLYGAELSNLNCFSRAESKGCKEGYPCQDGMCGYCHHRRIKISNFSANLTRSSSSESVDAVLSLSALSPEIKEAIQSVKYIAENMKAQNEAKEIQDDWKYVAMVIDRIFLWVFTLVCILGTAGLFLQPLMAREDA
# T2 sequence (P30926 22-498): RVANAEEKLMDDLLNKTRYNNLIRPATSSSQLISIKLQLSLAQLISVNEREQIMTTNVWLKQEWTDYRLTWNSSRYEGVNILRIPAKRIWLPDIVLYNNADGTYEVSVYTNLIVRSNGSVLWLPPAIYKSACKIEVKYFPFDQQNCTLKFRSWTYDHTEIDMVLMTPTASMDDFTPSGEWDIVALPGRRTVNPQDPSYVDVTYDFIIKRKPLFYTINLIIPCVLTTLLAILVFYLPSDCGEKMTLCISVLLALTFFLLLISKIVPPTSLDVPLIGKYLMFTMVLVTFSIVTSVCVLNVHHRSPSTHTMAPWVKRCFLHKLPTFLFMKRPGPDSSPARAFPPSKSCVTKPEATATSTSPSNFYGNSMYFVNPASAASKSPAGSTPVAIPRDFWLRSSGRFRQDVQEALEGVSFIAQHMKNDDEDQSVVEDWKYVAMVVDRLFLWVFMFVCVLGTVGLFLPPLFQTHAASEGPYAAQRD
# T1 sequence (P36544 23-502): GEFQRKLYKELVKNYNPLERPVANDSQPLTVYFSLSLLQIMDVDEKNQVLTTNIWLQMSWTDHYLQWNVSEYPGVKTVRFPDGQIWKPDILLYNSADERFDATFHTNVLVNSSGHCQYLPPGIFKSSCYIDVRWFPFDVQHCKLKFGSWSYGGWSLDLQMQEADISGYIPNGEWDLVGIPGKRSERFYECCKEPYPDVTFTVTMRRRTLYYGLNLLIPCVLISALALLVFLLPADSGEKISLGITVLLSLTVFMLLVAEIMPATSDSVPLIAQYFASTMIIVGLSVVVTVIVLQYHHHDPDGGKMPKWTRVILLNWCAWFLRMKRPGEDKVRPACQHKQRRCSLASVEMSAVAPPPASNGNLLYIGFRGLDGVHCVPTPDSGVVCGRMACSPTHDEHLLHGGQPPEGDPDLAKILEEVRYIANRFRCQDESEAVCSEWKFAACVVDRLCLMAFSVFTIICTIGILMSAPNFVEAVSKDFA
structure (smiles),measurement,setting,value
"CC[S+](CC)CC [Compound S11, triethylsulfonium iodide]",α7 functional classification (silent agonist / inactive),α7 nAChR [1],silent agonist
same,IMax (PNU Activation),α7 nAChR [2],>1.8
same,effect on 60 µM ACh response at 1 mM,α7 nAChR [3],not statistically significant
same,IC50,α3β4 nAChR,108 ± 20 µM
"C[S+](Cc1ccccc1)Cc1ccccc1 [Compound S8, dibenzyl(methyl)sulfonium tetrafluoroborate]","60 µM ACh peak currents, % controls",α7 nAChR [3]; [5],21 ± 3%
same,"1 mM ACh net-charge responses, % of those obtained without S8 co-application",α7 nAChR [3]; [5],56 ± 6%
same,remaining activity at 5 µM,"α7 nAChR [3]; 5 µM S8 pre-applied and co-applied, n = 8, read-out: 60 µM ACh net-charge responses, % of controls",28 ± 2%
same,IC50,"α7 nAChR [3]; net charge, co-application, eight cells, read-out: IC50 for inhibition of 60 µM ACh responses",4.9 ± 2.7 µM
same,1 mM ACh peak-current amplitudes compared to 60 µM controls,"α7 nAChR [3]; with 5 µM S8 pre- and co-application, n = 8",3.72 ± 0.81
same,IC50,α3β4 nAChR,3.4 ± 0.4 µM
same,relative antagonist activity,[4],most active antagonist
"C[S+](C)c1ccc(O)cc1O [Compound S5, (2,4-dihydroxyphenyl)dimethylsulfonium trifluoromethanesulfonate]",response when co-applied with TQS,α7 nAChR [1],did not generate responses
same,α7 functional classification (silent agonist / inactive),α7 nAChR [1],simply inactive
same,inhibition of responses to 60 µM ACh,α7 nAChR [3]; net charge,failed to produce inhibition
same,pKa,"pKa by titration; phenolic hydroxyl, data not shown for S9, S10, read-out: pKa",~6.3
same,pKa,pKa by titration; read-out: pKa for the second hydroxyl,9.2
"CCOC(=O)C[S+](C)C.[Br-] [Compound S2, (2-ethoxy-2-oxoethyl)dimethylsulfonium bromide]",α7 functional classification (silent agonist / inactive),α7 nAChR [1],efficacious silent agonist
same,IMax (PNU Activation),α7 nAChR [2],16 ± 6
same,effect on 60 µM ACh response at 1 mM,α7 nAChR [3],significant inhibition
same,inhibition at 100 µM,α7 nAChR [3],≤ 10%
"OCC[S+](CCO)CCO.[Br-] [Compound S4, tris(2-hydroxyethyl)sulfonium bromide]",response when co-applied with TQS,α7 nAChR [1],did not generate responses
same,α7 functional classification (silent agonist / inactive),α7 nAChR [1],simply inactive
same,inhibition of responses to 60 µM ACh,α7 nAChR [3]; net charge,failed to produce inhibition
"C[S+](C)CC(=O)c1ccccc1.F[B-](F)(F)F [Compound S7, dimethyl(2-oxo-2-phenylethyl)sulfonium tetrafluoroborate]",α7 functional classification (silent agonist / inactive),α7 nAChR [1],silent agonist activity
same,IMax (PNU Activation),α7 nAChR [2],>1.1
CC[S+]1CCN(c2ccccc2)CC1.O=S(=O)([O-])C(F)(F)F [1-ethyl-4-phenylthiomorpholin-1-ium trifluoromethanesulfonate],behaviour at α7,α7,inactive when applied alone but active when co-applied with an α7 PAM
"COc1ccc([N+](=O)[O-])cc1C[S+](C)C.[Br-] [Compound S3, (2-methoxy-5-nitrobenzyl)dimethylsulfonium bromide]",α7 functional classification (silent agonist / inactive),α7 nAChR [1],silent agonist activity
same,IMax (PNU Activation),α7 nAChR [2],22 ± 2.5
same,EC50,α7 nAChR [2]; read-out: EC50 (PNU Activation),263 ± 23 µM
same,inhibition at 100 µM,α7 nAChR [3],~50%
same,IC50,α3β4 nAChR,18 ± 2.6 µM
